{
  "source": "patent US9150840B2",
  "about": "“Isolated bacterial strain of Achromobacter sp. MTCC 5605 and a highly enantioselective epoxide hydrolase isolated therefrom” (COUNCIL OF SCIENTIFIC & INDUSTRIAL RESEARCH, priority 2011, dated 2015)",
  "data": [
    {"test_system": "Achromobacter sp. MTCC 5605", "experiment": "Antibiotic sensitivity of the isolated strain", "format": "cell-based", "details": "not given", "values": [
      {"molecule": "C[C@@H]1[C@H](O)[C@@H](C)/C=C/C=C/C=C/C=C/C=C/C=C/C=C/[C@H](O[C@@H]2O[C@H](C)[C@@H](O)[C@H](N)[C@@H]2O)C[C@@H]2O[C@](O)(C[C@@H](O)C[C@@H](O)[C@H](O)CC[C@@H](O)C[C@@H](O)CC(=O)O[C@H]1C)C[C@H](O)[C@H]2C(=O)O", "note": "[Amphotericin B]", "Antibiotic sensitivity": "Resistant to Penicillin-G (10 units), Methicillin (5 mcg),"},
      {"molecule": "O=C(N[C@H](CO)[C@H](O)c1ccc([N+](=O)[O-])cc1)C(Cl)Cl", "note": "[Chloramphenicol]", "Antibiotic sensitivity": "Sensitive to Erythromycin (10 mcg), Gentamycin (10 mcg),"},
      {"molecule": "O=C(O)c1cn(C2CC2)c2cc(N3CCNCC3)c(F)cc2c1=O", "note": "[Ciprofloxacin]", "Antibiotic sensitivity": "Sensitive to Erythromycin (10 mcg), Gentamycin (10 mcg),"},
      {"molecule": "CC[C@H]1OC(=O)[C@H](C)[C@@H](O[C@H]2C[C@@](C)(OC)[C@@H](O)[C@H](C)O2)[C@H](C)[C@@H](O[C@@H]2O[C@H](C)C[C@H](N(C)C)[C@H]2O)[C@](C)(O)C[C@@H](C)C(=O)[C@H](C)[C@@H](O)[C@]1(C)O", "note": "[Erythromycin]", "Antibiotic sensitivity": "Sensitive to Erythromycin (10 mcg), Gentamycin (10 mcg),"},
      {"molecule": "COc1cccc(OC)c1C(=O)N[C@@H]1C(=O)N2[C@@H]1SC(C)(C)[C@@H]2C(=O)O", "note": "[Methicillin]", "Antibiotic sensitivity": "Resistant to Penicillin-G (10 units), Methicillin (5 mcg),"},
      {"molecule": "C[C@@H]1[C@H](O)[C@@H](C)/C=C/C=C/CC/C=C/C=C/C=C/C=C/C(O[C@H]2O[C@H](C)[C@@H](O)[C@H](N)[C@@H]2O)CC2O[C@](O)(CC(O)C(O)CCC(O)CC(O)CC(O)CC(=O)O[C@H]1C)CC(O)C2C(=O)O", "note": "(stereo partly drawn) [Nystatin]", "Antibiotic sensitivity": "Resistant to Penicillin-G (10 units), Methicillin (5 mcg),"},
      {"molecule": "CC1(C)S[C@@H]2[C@H](NC(=O)Cc3ccccc3)C(=O)N2[C@H]1C(=O)O", "note": "[Penicillin-G]", "Antibiotic sensitivity": "Resistant to Penicillin-G (10 units), Methicillin (5 mcg),"}
    ]},
    {"test_system": "Achromobacter sp. MTCC 5605", "experiment": "Antibiotic sensitivity of the isolated strain", "format": "cell-based", "details": "amount per antibiotic as printed (5-30 mcg, 10 units)", "values": [
      {"molecule": "Gentamycin", "Antibiotic sensitivity": "Sensitive to Erythromycin (10 mcg), Gentamycin (10 mcg),"}
    ]},
    {"test_system": "epoxide hydrolase from Achromobacter sp. MTCC 5605", "experiment": "not given", "format": "biochemical", "details": "pH 8", "values": [
      {"molecule": "O[C@H](CS)[C@H](O)CS", "note": "(racemic) [dithiothreitol]", "Inhibition of epoxide hydrolase activity": "none of them showed any inhibition"},
      {"molecule": "CCCCCCCCCCCCCCCC[N+](C)(C)C.[Br-]", "note": "[cetyltrimethylammonium bromide]", "Inhibition of epoxide hydrolase activity": "none of them showed any inhibition"},
      {"molecule": "CCOC(=O)OC(=O)OCC", "note": "[diethyl pyrocarbonate]", "Inhibition of epoxide hydrolase activity": "none of them showed any inhibition"},
      {"molecule": "O=C(O)CN(CCN(CC(=O)O)CC(=O)O)CC(=O)O", "note": "[ethylenediaminetetraacetic acid]", "Inhibition of epoxide hydrolase activity": "none of them showed any inhibition"},
      {"molecule": "NO", "note": "[hydroxylamine]", "Inhibition of epoxide hydrolase activity": "none of them showed any inhibition"},
      {"molecule": "NNc1ccccc1", "note": "[phenyl hydrazine]", "Inhibition of epoxide hydrolase activity": "none of them showed any inhibition"},
      {"molecule": "CCCCCCCCCCCCOS(=O)(=O)[O-].[Na+]", "note": "[sodium dodecyl sulphate]", "Inhibition of epoxide hydrolase activity": "none of them showed any inhibition"}
    ]}
  ]
}
